Results from patent US11629139B2 (priority 2017, dated 2023).

System: vesicular stomatitis virus particles (VSV) pseudotyped with EboV Zaire GP
Experiment: microbe, parasite or virus in culture
Format: cell-based
Details: Vesicular stomatitis virus

Q: With `O=C(CC12CC3CC(CC(C3)C1)C2)NCC(=O)N1CCN(Cc2cc(Br)ccc2O)CC1` [Compound 1026] as the molecule, how does the IC50 read?
A: 300 to 500 nM

Q: With `COC(=O)c1ccc(COc2ccc(Br)cc2CN2CCN(C(=O)CNC(=O)CC34CC5CC(CC(C5)C3)C4)CC2)cc1` [Compound 1111] as the molecule, how does the IC50 read?
A: 13 nM

Q: For `COC(=O)c1ccc(COc2ccc(F)cc2CN2CCN(C(=O)CNC(=O)CC34CC5CC(CC(C5)C3)C4)CC2)cc1` [Compound 1112], which IC50 is on record?
A: < 2000 nM

Q: With `COC(=O)c1ccc(COc2ccc([N+](=O)[O-])cc2CN2CCN(C(=O)CNC(=O)CC34CC5CC(CC(C5)C3)C4)CC2)cc1` [Compound 1113] as the molecule, how does the IC50 read?
A: < 2000 nM

Q: With `COC(=O)c1ccc(COc2ccc(C)cc2CN2CCN(C(=O)CNC(=O)CC34CC5CC(CC(C5)C3)C4)CC2)cc1` [Compound 1114] as the molecule, how does the IC50 read?
A: < 2000 nM

Q: `COC(=O)c1ccc(COc2ccc(OC)cc2CN2CCN(C(=O)CNC(=O)CC34CC5CC(CC(C5)C3)C4)CC2)cc1` [Compound 1115] was tested. Which IC50 did it give?
A: 1400 nM

Q: `COC(=O)c1ccc(COc2ccc(C#N)cc2CN2CCN(C(=O)CNC(=O)CC34CC5CC(CC(C5)C3)C4)CC2)cc1` [Compound 1117] was tested. Which IC50 did it give?
A: 50 nM

Q: `COC(=O)c1ccc(COc2ccc(Cl)cc2CN2CCN(C(=O)CNC(=O)CC34CC5CC(CC(C5)C3)C4)CC2)cc1` [Compound 1118] was tested. Which IC50 did it give?
A: 1 nM

Q: With `COC(=O)c1ccc(COc2ccccc2C(C)N2CCN(C(=O)CNC(=O)CC34CC5CC(CC(C5)C3)C4)CC2)cc1` (stereo not shown) [Compound 1122] as the molecule, how does the IC50 read?
A: ~2000 nM

Q: How did the IC50 turn out when `COC(=O)c1ccc(CCc2ccccc2CN2CCN(C(=O)CNC(=O)CC34CC5CC(CC(C5)C3)C4)CC2)cc1` [Compound 1123] was run?
A: 20 nM

Q: Which IC50 does the source give for `O=C(Cc1cccc2ccccc12)NCC(=O)N1CCN(Cc2ccccc2OCc2ccc(Br)cc2)CC1` [Compound 1136] here?
A: > 2000 nM

Q: For `CC(C)(CC(=O)NCC(=O)N1CCN(Cc2ccccc2OCc2ccc(Br)cc2)CC1)C1CCCCC1` [Compound 1138], which IC50 is on record?
A: > 2000 nM

Q: How did the IC50 turn out when `O=C(CC12CC3CC(C1)CC(c1ccccc1)(C3)C2)NCC(=O)N1CCN(Cc2ccccc2OCc2ccc(Br)cc2)CC1` [Compound 1141] was run?
A: 700 nM

Q: How did the IC50 turn out when `CC1(CC(=O)NCC(=O)N2CCN(Cc3ccccc3OCc3ccc(Br)cc3)CC2)CCCCC1` [Compound 1142] was run?
A: 520 nM

Q: Which IC50 does the source give for `O=C(CC12CC3CC(CC(Cl)(C3)C1)C2)NCC(=O)N1CCN(Cc2ccccc2OCc2ccc(Br)cc2)CC1` [Compound 1243] here?
A: 500 nM

Q: `O=C(CC12CC3CC(CC(O)(C3)C1)C2)NCC(=O)N1CCN(Cc2ccccc2OCc2ccc(Br)cc2)CC1` [Compound 1244] was tested. Which IC50 did it give?
A: 500 nM

Q: For `O=C(CC12CC3CC(CC(Br)(C3)C1)C2)NCC(=O)N1CCN(Cc2ccccc2OCc2ccc(Br)cc2)CC1` [Compound 1245], which IC50 is on record?
A: 600 nM

Q: How did the IC50 turn out when `O=C(CC12CC3CC(C1)CC(n1cncn1)(C3)C2)NCC(=O)N1CCN(Cc2ccccc2OCc2ccc(Br)cc2)CC1` [Compound 1246] was run?
A: < 2000 nM

Q: For `O=C(CC12CC3CC(CC(C3)C1)C2)NCC(=O)N1CCN(Cc2cc(Cl)ccc2O)CC1` [Compound 1249, 2-((1R,3R,5S)-Adamantan-1-yl)-N-(2-(4-(5-chloro-2-hydroxybenzyl)piperazin-1-yl)-2-oxoethyl)acetamide], which IC50 is on record?
A: 200 nM

Q: How did the IC50 turn out when `Nc1ccc(CN2CCN(C(=O)CNC(=O)CC34CC5CC(CC(C5)C3)C4)CC2)cc1Cl` [Compound 1250] was run?
A: 800 nM

Q: For `CN(C)c1ccc(CN2CCN(C(=O)CNC(=O)CC34CC5CC(CC(C5)C3)C4)CC2)cc1Cl` [Compound 1251], which IC50 is on record?
A: 1700 nM

Q: How did the IC50 turn out when `Nc1cc(OCc2ccc(Br)cc2)c(CN2CCN(C(=O)CNC(=O)CC34CC5CC(CC(C5)C3)C4)CC2)cc1Cl` [Compound 1252] was run?
A: 800 nM

Q: With `COC(=O)c1ccc(/C=C/c2ccccc2CN2CCN(C(=O)CNC(=O)CC34CC5CC(CC(C5)C3)C4)CC2)cc1` [Compound 1253] as the molecule, how does the IC50 read?
A: 1500 nM

Q: For `O=C(CNC(=O)C12CC3(F)CC(F)(CC(F)(C3)C1)C2)N1CCN(Cc2ccccc2OCc2ccc(Br)cc2)CC1` [Compound 1255], which IC50 is on record?
A: 400 nM

Q: For `CNS(=O)(=O)c1ccc(COc2ccccc2CN2CCN(C(=O)CNC(=O)CC34CC5CC(CC(C5)C3)C4)CC2)cc1` [Compound 1257], which IC50 is on record?
A: 300 nM
